Laboratory results taken from patent publication US11099176B2 (priority 2015, dated 2021).
Where two headings read alike, the source gives them in different places.

Assays:
[1] = molecular target: Marinobacter sp. msLacBP6 variant G170C, SEQ ID NO: 36, Acrylodan conjugate; test: Fluorescence titration of conjugate; format: binding; settings: λ1 518, λ2 490 nm
[2] = molecular target: Marinobacter sp. msLacBP6 variant Y187C (187C), SEQ ID NO: 38, Acrylodan conjugate; test: Fluorescence titration of conjugate; format: binding
[3] = molecular target: Marinobacter sp. msLacBP6 variant Y187C, C-terminal βZif fusion, SEQ ID NO: 61, Acrylodan and βZif 5IAF (Fluorescein) conjugate; test: Fluorescence titration of doubly labeled conjugate (ngmFRET); format: binding
Text: (§1) We tested whether non-geometrically modulated fluorescence energy transfer (ngmFRET) effects in doubly labeled proteins could improve ratiometric signaling. To this end, we fused a small, disulfide-containing domain, βZif (Smith et al., 2005, Protein Sci, 14, 64-73) to the C-terminus of msLacBP6 187C (Table 5). This arrangement enables independent, site-specific labeling with two different, thiol-reactive fluorophores by first reacting at the unprotected thiol in the msLacBP6, followed by a reduction of the […] disulfide to deprotect and label this second site with a second fluorophore. […] Indirectly responsive partners are selected according to their excitation and emission characteristics such that energy transfer is established between the two fluorophores. […] Mechanisms for non-geometrically modulated FRET (ngmFRET) effects are detailed in Materials and Methods and PCT International Patent Application No. PCT/US 16/62958, filed Nov. 19, 2016, the entire content of which is incorporated herein by reference.
(§2) In the Badan conjugates, the ngmFRET coupling was so strong that all the donor excited state energy was transferred to the acceptor, and the signal was converted from a dichromatic to a monochromatic response. In the Acrylodan conjugates, an improvement in the dichromatic signal was observed (FIG. 7).
(§3) Temperatures were advanced in 1K steps. […] Under these experimental photobleaching was not observed.

[4] = molecular target: Marinobacter sp. msLacBP6 variant Y187C, C-terminal βZif fusion, SEQ ID NO: 61, Acrylodan and βZif Alexa532 conjugate; test: as above; format: binding
Text: as §1, §2, §3

[5] = molecular target: T1, Pseudomonas stuztzeri psLacBP11 variant W195C, SEQ ID NO: 45, Badan conjugate (Stutzerimonas nitrititolerans, UniProt A0ABX9V4I2, W224C); format: binding; set-up: key: nb: no binding
T1 construct: Badan on Cys195
Protocol: (§4) 12-, 24-, or 48-point logarithmic titration series were prepared on a Tecan Freedom liquid-handling robot, using an in-house program, ‘TitrationPlate’, that compiles an abstract description of a multi-component titration series into machine instructions for operating the robot. Temperature-dependent fluorescence emission intensities of 20 μL aliquots, each containing 10 μM protein, were measured in 384-well microtiter plates in a LightCycler 480 II (Roche) using excitation and emission wavelengths available for this instrument that most closely matched the optical characteristics of the fluorescent conjugate. Temperatures were advanced in 1K steps. At each temperature, data was collected at 1-second intervals for 60 seconds at which point the signal had relaxed to a steady value associated with the new temperature. […] The in-house program ‘TitrationMeltPlate’ was used to convert these observations into time-independent datasets that record fluorescence as a function of temperature for each well and associate wells with their concentration of titrant and additive. Management tools were developed to maintain a database of titrations and their analyses.
(§5) Ligand- and wavelength-dependent emission intensities were recorded on a Nanodrop3300 (Thermo Scientific) at room temperature. Using the LED closest to the optimal excitation wavelength of the fluorophore (UV, 365 nm; blue, 470 nm; ‘white’, 460-550 nm).
(§6) Monochromatic emission intensities Iλ (these intensities correspond to a bandpass intensity, recorded either with a physical filter in the case of the Roche LightCycler, or by integrating in the interval λ−δ, λ+δ in the case of an emission spectrum), were fit to Iλ=^apoβλ(1−ytrue)+^satβλytrue 1 where ^apoβλ and ^satβλ are the fluorescence baselines associated with the ligand-free and ligand-bound states of the protein, respectively, and ytrue the fractional saturation of the protein (Layton and Hellinga, 2010, Biochemistry, 49, 10831-41). Baseline functions can be constant, linear, or a second-order polynomial.

[6] = molecular target: T2, Rhodobacter sphaeroides rsLacBP12 variant F191C, SEQ ID NO: 46, Acrylodan conjugate (Cereibacter sphaeroides, UniProt Q3IWV8, F228C); format: binding; set-up: key: nb: no binding
T2 construct: Acrylodan on Cys191
Protocol: as §4, §5, §6

[7] = molecular target: T3, Rhodobacter sphaeroides rsLacBP12 variant F191C, SEQ ID NO: 46, Badan conjugate (Cereibacter sphaeroides, UniProt Q3IWV8, F228C); format: binding; set-up: key: nb: no binding
T3 construct: Badan on Cys191
Protocol: as §4, §5, §6

[8] = molecular target: T4, Thermanaerovibrio acidaminovorans taLacBP14 variant W186C, SEQ ID NO: 48, Acrylodan conjugate (Thermanaerovibrio acidaminovorans, UniProt D1B6P5, C271A/C333A/W212C); format: binding; set-up: key: nb: no binding
T4 construct: Acrylodan on Cys186
Protocol: as §4, §5, §6

[9] = molecular target: Marinobacter sp. msLacBP6 variant 187C, F68L, SEQ ID NO: 49, Badan conjugate; test: Fluorescence titration of conjugate (affinity tuning); format: binding; settings: λ1 463, λ2 535 nm
[10] = molecular target: Marinobacter sp. msLacBP6 variant 187C, L70M, SEQ ID NO: 53, Badan conjugate; test: as above; format: binding; settings: λ1 459, λ2 539 nm
[11] = molecular target: Marinobacter sp. msLacBP6 variant 187C, 70M, SEQ ID NO: 53, Acrylodan conjugate, immobilized on Ni-NTA beads; test: Lactate titration of immobilized conjugate on magnetic Ni-NTA beads; settings: read-out: trueKd (lactate), λ1 452, λ2 525 nm

T3 sequence (Q3IWV8 entry or part of it F228C): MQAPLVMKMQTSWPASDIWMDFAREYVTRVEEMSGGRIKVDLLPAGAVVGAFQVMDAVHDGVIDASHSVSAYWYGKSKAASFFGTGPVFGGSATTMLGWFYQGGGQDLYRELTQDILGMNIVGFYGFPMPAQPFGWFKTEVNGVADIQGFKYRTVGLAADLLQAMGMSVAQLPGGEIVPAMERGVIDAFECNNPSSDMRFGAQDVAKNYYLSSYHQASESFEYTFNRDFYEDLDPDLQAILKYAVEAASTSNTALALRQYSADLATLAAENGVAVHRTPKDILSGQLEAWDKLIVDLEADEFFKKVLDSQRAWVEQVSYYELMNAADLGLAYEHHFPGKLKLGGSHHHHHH
T2 sequence (Q3IWV8 entry or part of it F228C): as above
T4 sequence (D1B6P5 entry or part of it W212C/C271A/C333A): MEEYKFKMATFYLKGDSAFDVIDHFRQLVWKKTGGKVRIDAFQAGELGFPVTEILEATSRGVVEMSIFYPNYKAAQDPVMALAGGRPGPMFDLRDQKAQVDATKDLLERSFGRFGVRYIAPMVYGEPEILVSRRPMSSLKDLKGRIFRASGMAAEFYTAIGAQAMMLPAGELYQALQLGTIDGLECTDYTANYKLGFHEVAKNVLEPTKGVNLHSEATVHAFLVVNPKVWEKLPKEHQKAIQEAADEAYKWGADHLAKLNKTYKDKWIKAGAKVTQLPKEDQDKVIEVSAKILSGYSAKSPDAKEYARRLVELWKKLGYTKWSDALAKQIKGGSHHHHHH
T1 sequence (A0ABX9V4I2 entry or part of it W224C): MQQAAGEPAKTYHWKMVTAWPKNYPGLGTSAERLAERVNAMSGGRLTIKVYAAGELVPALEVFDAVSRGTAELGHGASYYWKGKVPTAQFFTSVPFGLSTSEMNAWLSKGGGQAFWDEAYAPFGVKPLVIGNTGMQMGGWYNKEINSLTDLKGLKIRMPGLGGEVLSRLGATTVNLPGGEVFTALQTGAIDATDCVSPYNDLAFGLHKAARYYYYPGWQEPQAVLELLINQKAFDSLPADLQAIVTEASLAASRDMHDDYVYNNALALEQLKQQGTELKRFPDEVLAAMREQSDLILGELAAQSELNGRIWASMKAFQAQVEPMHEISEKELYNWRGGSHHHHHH

Compound C[C@H](O)C(=O)O [lactate] has a Kd ([1]; read-out: appKd (lactate)) of 10 µM, a Kd ([1]; read-out: trueKd (lactate)) of 5 µM and a Kd ([2]; read-out: appKd (lactate), approximate, text statement for Acrylodan and Badan conjugates) of about 400 µM. The Kd ([2]; read-out: appKd (lactate), λ1 452, λ2 482 nm as printed in Table 5) was 400 µM, the Kd ([2]; read-out: appKd (lactate), λ1 452, λ2 582 nm (FIG. 5A, Table 7)) was 400 µM and the Kd ([2]; read-out: appKd (lactate), λ1 483, λ2 451 nm (Table 6)) was 230 µM. For the same compound, the Kd ([2]; read-out: trueKd (lactate), λ1 452, λ2 482 nm as printed in Table 5) was 300 µM, the Kd ([2]; read-out: trueKd (lactate), λ1 452, λ2 582 nm (FIG. 5A, Table 7)) was 300 µM and the Kd ([2]; read-out: trueKd (lactate), λ1 483, λ2 451 nm (Table 6)) was 350 µM. It also gave a Kd ([3]; read-out: appKd (lactate), λ1 452, λ2 520 nm) of 300 µM, a Kd ([3]; read-out: trueKd (lactate), λ1 452, λ2 520 nm) of 300 µM and a Kd ([4]; read-out: appKd (lactate), λ1 452, λ2 550 nm) of 400 µM. The Kd ([4]; read-out: trueKd (lactate), λ1 452, λ2 550 nm) was 300 µM, the “appKd (lactate)” value [5] was “nb” and the “trueKd (lactate)” value [5] was “nb”. For the same compound, the “appKd (lactate)” value [6] was “nb”, the “trueKd (lactate)” value [6] was “nb” and the “appKd (lactate)” value [7] was “nb”. For the same compound, the “trueKd (lactate)” value [7] was “nb”, the “appKd (lactate)” value [8] was “nb” and the “trueKd (lactate)” value [8] was “nb”. For the same compound, the Kd ([9]; read-out: appKd (lactate)) was 400 µM, the Kd ([9]; read-out: trueKd (lactate)) was 400 µM and the Kd ([10]; read-out: appKd (lactate)) was 1100 µM. The Kd ([10]; read-out: trueKd (lactate)) was 700 µM and the Kd [11] was 1200 µM.
